Source: EP1113726B1, “USE OF NEOHESPERIDIN DIHYDROCHALCONE FOR THE MANUFACTURE OF A MEDICAMENT FOR PREVENTING OR TREATING ELEVATED BLOOD LIPID LEVEL-RELATED DISEASES” (Korea Research Institute of Bioscience and Biotechnology, priority 1998, dated 2000)

Columns and labels:
Sprague-Dawley rats = assay: Plasma total cholesterol, HDL-cholesterol and neutral lipid levels in rats fed a high-cholesterol diet; conditions: 1 % cholesterol diet plus 0.05 % neohesperidin dihydrochalcone, six weeks
[1] = system: New Zealand White rabbits; assay: Microscopic grading of abnormal fat-containing cells in the liver of cholesterol-fed rabbits (fatty liver); format: in vivo; conditions: 1 % cholesterol diet for 6 weeks plus 1 mg/kg Lovastatin or 0.05 % neohesperidin dihydrochalcone
Procedure: (§1) 30 three-month-old New Zealand White rabbits(Yeonam Horticulture and Animal Husbandry College, Korea), each weighing about 2.5 to 2.6 kg, were raised under a condition of temperature 20±2°C, relative humidity 55±5 %, and photoperiod 12L/12D. The rabbits were divided into 3 groups and 3 groups of rabbits were fed with 3 different diets, i.e., RC4 diet(Oriental Yeast Co., Japan) containing 1 % cholesterol(Control group); 1 % cholesterol plus 1 mg/kg Lovastatin®(Merck, U.S.A.)(Lovastatin group); and 1 % cholesterol plus 0.05 % neohesperidin dihydrochalcone(Neohesperidin dihydrochalcone group), respectively. RC4 diet comprises 7.6 % moisture, 22.8 % crude protein, 2.8 % crude fat, 8.8 % crude ash, 14.4 % crude cellulose and 43.6 % soluble nitrogen-free substances. Neohesperidin dihydrochalcone was purchased from Sigma Chemical Co.(St. Louis, MO).
(§2) The rabbits were fed for 6 weeks while being allowed free access to the diets and water.
In order to evaluate the effects of feeding a high cholesterol diet with neohesperidin dihydrochalcone on liver tissues, the liver specimens taken from the sacrificed rabbit in Step 2 of Example 6 were treated in accordance with the procedure disclosed in Fogt F. and Nanji A., Toxicology and Applied Pharmacology, 136, 87-93, 1996; and Keegan A., et al., Journal of Hepatology 23: 591-600, 1995, and observed under a microscope to be classified into four grades, i.e., 1+(0-25%), 2+(26-50%), 3+(51-75), 4+(76-100%) based on the proportion of abnormal fat-containing cells around the central vein in the liver acinus.
Figs. 2A, 2B and 2C present the microscopic features of the livers of the rabbits administered with 1% cholesterol; 1% cholesterol plus 1 mg/kg Lovastatin®; 1% and cholesterol plus 0.05% neohesperidin dihydrochalcone, respectively.

ACAT = ACAT assay on liver microsomes of the diet-fed rats; format: biochemical; conditions: ex vivo: liver microsomes of rats fed 1 % cholesterol plus 0.05 % neohesperidin dihydrochalcone for six weeks, versus Control group
Procedure: To determine the effect of feeding neohesperidin dihydrochalcone to rats on the activity of ACAT, microsomes were separated from liver tissues to be used as an enzyme source.
1 g each of the livers taken from each group of rats of Example 2 was homogenized in 5 ml of homogenization medium(0.1 M KH2PO4, pH 7.4, 0.1 mM EDTA and 10 mM β-mercaptoethanol). The homogenate was centrifuged at 3,000xg for 15 min. at 4°C and the supernatant thus obtained was centrifuged at 15,000xg for 15 min. at 4°C to obtain a supernatant. The supernatant was put into an ultracentrifuge tube(Beckman) and centrifuged at 100,000xg for 1 hour at 4°C to obtain microsomal pellets, which were then suspended in 3 ml of the homogenization medium and centrifuged at 100,000xg for 1 hour at 4°C. The pellets thus obtained were suspended in 1 ml of the homogenization medium. The protein concentration of the resulting suspension was determined by Lowry's method and then adjusted to 4 to 8 mg/ml. […]
200 µl of the resulting supernatant was put in a scintillation bottle and 4 ml of scintillation fluid(Lumac) was added thereto. The mixture was assayed for radioactivity with 1450 Microbeta liquid scintillation counter(Wallacoy, Finland). ACAT activity was calculated as picomoles of cholesteryl oleate synthesized per min. per mg protein(pmoles/min/mg protein).

Human = assay: Effect of administration to a human on plasma lipid metabolism; format: in vivo; conditions: two men in their mid-fifties, daily oral dose of 10mg/kg, capsule, 60 days, before versus after
Procedure: Two men in their mid-fifties were administered with a daily oral dose of 10mg/kg of neohesperidin dihydrochalcone in the form of a capsule for 60 days. The plasma cholesterol and neutral lipid(triglyceride) contents were determined before and after the administration.

[2] = system: New Zealand White rabbits; assay: Analysis for fatty streak in the main artery of cholesterol-fed rabbits (Oil Red O staining); format: in vivo; conditions: 1 % cholesterol diet for 6 weeks plus 1 mg/kg Lovastatin or 0.05 % neohesperidin dihydrochalcone
Procedure: as §1, §2
The chest of each of the rabbits sacrificed in Step 2 was incised. The downward portion of the main artery from the site 1 cm above the aortic valve was cut out in a length of about 5 cm and the fat surrounding the main artery was removed. The main artery was incised in the middle along the longitudinal axis and pinned to a dish. The moist artery was photographed and, then, the staining of fatty streaks was carried out in accordance with the method of Esper, E., et al. (J. Lab. Clin. Med., 121, 103-110(1993)) as follows.
A part of the incised main artery was washed three times with anhydrous propylene glycol for 2 min and stained for 30 min. with a saturated solution of Oil Red O(ORO, Sigma Co.) dissolved in propylene glycol. Thereafter, the artery was washed twice with 85 % propylene glycol for 3 min. to remove remaining staining solution and, then washed with physiological saline. The artery was photographed and the photograph was traced. The area of stained region (fatty streak region) was determined with an image analyzer(LEICA, Q-600, Germany) and its proportion(%) to the total arterial area was calculated.

Compound: COc1ccc(CCC(=O)c2c(O)cc(O[C@@H]3O[C@H](CO)[C@@H](O)[C@H](O)[C@H]3O[C@@H]3O[C@@H](C)[C@H](O)[C@@H](O)[C@H]3O)cc2O)cc1O [Neohesperidin dihydrochalcone]
- (HDL-C)/(Total-C (%)) (Sprague-Dawley rats): 16%
- neutral lipid content reduced, as compared with Control group (Sprague-Dawley rats): 9%
- total plasma cholesterol level reduced, as compared with Control group (Sprague-Dawley rats): 15%
- HDL-C (Sprague-Dawley rats; n=10): 19 ± 3 mg/dL
- TG (Sprague-Dawley rats; n=10): 52 ± 8 mg/dL
- Total-C (Sprague-Dawley rats; n=10): 115 ± 10 mg/dL
- B: Proportion of abnormal fat-containing cells ([1]; rabbit liver, cells around the central vein, mean of grades 1+ to 4+): 2.7 (±0.3)
- microscopic features of the liver (Figs. 2B, 2C) ([1]; rabbits): almost all liver cells are of a normal shape
- %Inhibition on ACAT activity (ACAT): 20%
- plasma cholesterol content reduced (Human): 20%
- plasma neutral lipid(triglyceride) content reduced (Human): 15%
- A: Proportion(%) of fatty streak region to the total arterial area ([2]; rabbit main artery): 12 (±7) %
- layer of macrophage-lipid complex on the arterial endothelium (Figs. 1B, 1C) ([2]; rabbits): no or very thin layers of macrophage-lipid complex
